Reference: US6987093B2 (priority 2001, dated 2006)
≈ marks a conversion by molar mass, not a printed value. Where “and” joins values, the source holds several entries; their conditions need not be identical. Equal entries are not always repeated. Where two headings read alike, the source gives them in different places.

Experiments:
[1] = system: Mycoplasma pneumoniae; conditions: single oral 10 mg/kg dose; only one of several macrolides tested; cited from earlier work
[2] = system: S. pneumoniae isolates; experiment: Susceptibility (MIC) testing of trial S. pneumoniae isolates with PCR of resistance mechanism; type: cell-based, Streptococcus pneumoniae; conditions: Streptococcus pneumoniae
From the text: (§1) Samples of middle ear fluid were split for storage at a central laboratory and cultured locally. All pathogens isolated locally were subcultured and sent to a central laboratory for confirmation and susceptibility testing, performed by Kirby-Bauer disk-diffusion or MIC testing according to NCCLS standards.
Polymerase chain reaction (PCR) determination of resistance mechanisms in all the azithromycin-resistant pneumococci was done.
(§2) Cultures were taken for antimicrobial susceptibility testing and bacterial species were identified. Current NCCLS approved breakpoints for MICs and zone sizes were applied to all data irrespective of the breakpoint in use at the time of the study. The isolates from the clinical studies were sent to central laboratories for identification and susceptibility determination. The methods for agar diffusion disk tests are those recommended by NCCLS.
(§3) The susceptibility breakpoints for azithromycin were defined as follows: […]

[3] = system: H. influenzae; experiment: Study 95-001 Kirby-Bauer disk diffusion susceptibility, H. influenzae; type: cell-based, Haemophilus influenzae; conditions: all H. influenzae organisms isolated
Procedure: (§4) Specimens for culture and susceptibility testing were obtained from the infected ear by tympanocentesis within 24 h of start of therapy. […] However, the study was evaluated using the breakpoints in the most recent set of guidelines.

[4] = system: S. pneumoniae; experiment: Study 95-001 otitis media, S. pneumoniae as baseline pathogen; type: in vivo, human; conditions: five patients in azithromycin regimens with S. pneumoniae isolates with intermediate resistance
Procedure: as §4
(§5) To be a bacteriological cure, the MITT subject had to have a positive culture from the middle ear for S. pneumoniae, H influenzae, or M. catarrhalis. Eradication was defined as presumed eradication of pretreatment pathogen(s) based on signs/symptoms or unavailability of culturable material. All evaluable patients had only one of the bacterial species present at baseline. There was no bacteriological response data collected for 95–001. However, the clinical outcome by bacterial pathogen at follow-up (approximately 28 days after first visit) was collected. For patients with S. pneumoniae as the baseline pathogen, all treatment arms yielded 100% clinical cure when the investigators' evaluations that were missing are not included in the analysis. […] The comparator drug, ceftriaxone, had no failures out of 9 patients.

[5] = system: M catarrhalis; experiment: Study 95-001 otitis media, M. catarrhalis; type: in vivo, human; conditions: 3-day dosing regimen
Procedure: as §4, §5

[6] = system: Streptococcus pneumoniae 02J1016; experiment: Murine lung (pulmonary/pneumonia) infection model challenged with Streptococcus pneumoniae; type: in vivo, mouse
[7] = system: Streptococcus pyogenes 02C0203; experiment: Murine acute infection (peritonitis) model challenged with Streptococcus pyogenes; type: in vivo, mouse
[8] = system: H. influenzae; experiment: Study 95-001 otitis media caused by H. influenzae; type: in vivo, human; conditions: 3-day regimen (10 mg/kg/day); 13 patients; follow-up
Procedure: as §4, §5

[9] = system: H. influenzae; experiment: Susceptibility testing of trial H. influenzae isolates; type: cell-based, Haemophilus influenzae; conditions: NCCLS criteria
From the text: as §1, §2, §3

[10] = system: Chlamydia trachomatis; conditions: azithromycin (± an anti-inflammatory agent); cited from earlier work
[11] = Azithromycin pulmonary tissue pharmacokinetics in mice; type: in vivo; conditions: female, CF-1, mouse, lung (pulmonary tissue), Pulmonary PK, total dose 100 mg/kg oral; for AUC(0-t): read-out: AUC(0-tlast)
Procedure: (§6) Blood and pulmonary tissue samples were taken starting at 0.5 h post-dose and at predetermined intervals over a 96 h period. Plasma and lung samples were prepared and maintained at −70 C. […] The lower limit of quantification (LLOQ) was 50 ng/ml. […] Interassay variability was <7%. Pharmacokinetic parameters were calculated using the non-compartmental method by WinNonlin 2.1 (Scientific Consulting, Inc.).

[12] = system: H. influenzae 54A1100; experiment: MIC determination, H. influenzae 54A1100; type: cell-based, Haemophilus influenzae; conditions: Haemophilus influenzae
Procedure: MIC Determinations. Streptococcus pneumoniae, S. pyogenes, E. faecalis, and H. influenzae MICs were determined using the broth microdilution procedure recommended by the NCCLS. Test trays were incubated at 35C without carbon dioxide. For testing of streptococci, the cation-adjusted Mueller-Hinton broth was supplemented with 2–3% lysed horse blood. For testing H. influenzae, freshly prepared Haemophilus Test Medium broth was used.
Bacterial Strains. • S. pneumoniae 02J1016, serotype 3, originally isolated from blood culture (strain P 4241) (MLS- and penicillin-susceptible). • S. pyogenes 02C0203, ATCC 12384, group A, type 3 (MLS-susceptible). • E. faecalis 03A1085, vancomycin susceptible clinically derived strain. • H. influenzae 54A1100, (43095 ATCC Fulghum strain) non-serotype B strain originally isolated from otitis media (macrolide and penicillin susceptible). • H. influenzae 54A1218, clinically derived non-serotype B strain (macrolide-susceptible, penicillin-resistant, TEM-1 beta-lactamase).

[13] = system: M. catarrhalis; experiment: Susceptibility testing of trial M. catarrhalis isolates; type: cell-based, Moraxella catarrhalis; conditions: NCCLS criteria
From the text: as §1, §2, §3

[14] = Azithromycin serum pharmacokinetics in mice; type: in vivo, mouse; conditions: for Cmax / Tmax / AUC(0-t): female, CF-1, mouse, Serum PK, total dose 100 mg/kg oral; for AUC(0-t): read-out: AUC(0-tlast)
Procedure: as §6, with “Plasma and lung samples were prepared and maintained at −70 C.” left out

[15] = oral QD, murine pneumonia model
[16] = oral QD, murine peritonitis model
[17] = 33 mg/kg, 3 days of dosing, 33.3 mg/kg/dose
[18] = 1 day of dosing, 100 mg/kg/dose
[19] = 2 days of dosing, 50 mg/kg/dose

## CC[C@H]1OC(=O)[C@H](C)[C@@H](O[C@H]2C[C@@](C)(OC)[C@@H](O)[C@H](C)O2)[C@H](C)[C@@H](O[C@@H]2O[C@H](C)C[C@H](N(C)C)[C@H]2O)[C@](C)(O)C[C@@H](C)CN(C)[C@H](C)[C@@H](O)[C@]1(C)O [Azithromycin, 9a-aza-9a-methyl-9-deoxo-9a-homoerythromycin A]
[1]
  efficacy: efficacious
[2]; macrolide-resistant S. pneumoniae isolates containing the erm B gene
  MIC: > 256 µg/mL
[2]; macrolide-resistant S. pneumoniae isolates containing the mef A gene
  MIC: 8 µg/mL (≈ 10.7 µM)
[3]
  zone sizes (agar diffusion): ≥ 19 mm
[3]; NCCLS breakpoint of ≧12 mm
  susceptibility by agar diffusion (zone size): susceptible
[4]
  clinical outcomes at EOT or follow-up: either “cure” or “improvement”
[5]
  outcome at follow-up of the two M catarrhalis isolates: presumed bacteriological cures
[6]; Dosing Regimen 1 day
  Oral PD50: 20.4 (16.4–24.3) mg/kg/day
[6]; Dosing Regimen 2 days
  Oral PD50: 27.6 (22.8–32.4) mg/kg/day
[6]; Dosing Regimen 3 days
  Oral PD50: 49.4 (28.1–70.8) mg/kg/day
[6]; mouse, in vivo
  Mice Surviving/Total: 0/10 and 10/10 and 7/10 and 1/10 and 9/10 and 4/10
[6]; [15]
  ED50 One-Day Therapy: 20^1 mg/kg/therapy
  ED50 Three-Day Therapy: 49 mg/kg/therapy
  ED50 Two-Day Therapy: 27 mg/kg/therapy
[7]; Dosing Regimen 1 day
  Oral PD50: 1.0 (0.6–1.4) mg/kg/day
[7]; Dosing Regimen 2 days
  Oral PD50: 2.5 (1.8–3.3) mg/kg/day
[7]; Dosing Regimen 3 days
  Oral PD50: 3.8 (3.8–3.9) mg/kg/day
[7]; mouse, in vivo
  Mice Surviving/Total: 1/10 and 10/10 and 8/10 and 3/10 and 0/10 and 9/10 and 7/10
[7]; [16]
  ED50 One-Day Therapy: 0.78^1 mg/kg/therapy
  ED50 Two-Day Therapy: 1.1 mg/kg/therapy
[8]
  failures: 2
[9]
  susceptibility of isolated H. influenzae to azithromycin: susceptible
[10]
  preserving fertility: superior to doxycycline and ofloxacin combinations
[11]; [17]
  Cmax: 28000 ng/mL
  Tmax: 12 h
  AUC(0-t): 1050 µg·h/mL
[11]; [18]
  Cmax: 40000 ng/mL
  Tmax: 4 h
  AUC(0-t): 970 µg·h/mL
[11]; [19]
  Cmax: 31000 ng/mL
  Tmax: 28 h
  AUC(0-t): 870 µg·h/mL
[12]; 54A1100, H. influenzae 54A1100
  MIC: 1.56 µg/mL (≈ 2.08 µM)
[12]; H. influenzae 54A1100, read-out: MIC
  MIC: 0.5 to 1 µg/mL (≈ 0.668 to 1.34 µM)
[13]
  susceptibility of isolated M. catarrhalis to azithromycin: susceptible
[14]; better when administered as a single dose
  Cmax, single dose vs. the same total dose administered over 3 days: 3 fold
[14]; [17]
  Cmax: 980 ng/mL
  Tmax: 26 h
  AUC(0-t): 19.8 µg·h/mL
[14]; [18]
  Cmax: 2100 ng/mL
  Tmax: 2 h
  AUC(0-t): 18.8 µg·h/mL
[14]; [19]
  Cmax: 1300 ng/mL
  Tmax: 26 h
  AUC(0-t): 15.9 µg·h/mL
